Assay results as given in the supplement of paper PMC11208160.

Experiment: recombinant barcode read abundance after kanamycin selection (control-corrected) (log10(CPM+1)); higher = more efficient recombination; sequences stand for … in AGTGCAGAGAAAATCGGCCAGTTTTCTCTGCCTGCAGTCCGCATGCCGT…AGATTTATGCAGCGGACTGCCTTTCTCCCAAAGTGATAAACCGGACAGTATCATGGACCGGTTTTCCCGGTAATCCGTATTTGCAAGGTTGGTTTCACT; site = the 11-nt target
Experimental: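 Pooled E. coli target-specificity screen for the IS621 bridge recombinase. Each library plasmid pairs an 11-nt target (CT core) with a bridge RNA whose target-binding loop (9-nt LTG + 4-nt RTG) is reprogrammed; the rest of the 177-nt WT IS621 bridge RNA scaffold is fixed. The plasmid is co-electroporated with a WT donor plasmid; recombinase is induced with 0.1 mM IPTG and recombinants are selected on kanamycin. Recombinant barcodes are sequenced, converted to CPM, averaged over two biological replicates and corrected by the unselected control CPM. Molecule = full bridge RNA written as DNA: LTG = specificity nt 1-9, RTG = reverse complement of specificity nt 8-11, in the WT scaffold.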
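Note: IS621 recombinase and bridge RNA in Escherichia coli cells.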

Sequence	recombinant barcode read abundance (log10)
ACGTAGACTTGGGTTCTAACCTGTTGCAG (site ACAGAGACTCT)	0.145
ACGTAGACTTGGGTTCTAACCTGTTGCAG (site ACGTAGACTCT)	0.802
ACGTCCACTTGGGTTCTAACCTGTTGCCA (site ACGTCCACTTG)	0.148
ACGTCCACTTGGGTTCTAACCTGTTGCCA (site GGAAGGTCTAT)	0.025
ACGTCCACTTGGGTTCTAACCTGTTGCCT (site ACGTCCACTAG)	0.0313
ACGTCCACTTGGGTTCTAACCTGTTGCCT (site CCGTCGACTAG)	0.317
ACGTCGTCTTGGGTTCTAACCTGTTGCCT (site AAGTCGTCTAG)	0.0262
ACGTCGTCTTGGGTTCTAACCTGTTGCCT (site ACGTCGTCTAG)	0.0697
ACGTCGTCTTGGGTTCTAACCTGTTGCCT (site AGGTCGTCTAG)	0.102
ACGTCGTCTTGGGTTCTAACCTGTTGCCT (site ATGTCGTCTAG)	0.0865
ACGTTACCTTGGGTTCTAACCTGTTGCCT (site ACGATACCTAG)	0.331
ACGTTACCTTGGGTTCTAACCTGTTGCCT (site ACGTTACCTAG)	0.501
ACGTTGCCTTGGGTTCTAACCTGTTGCCT (site ACATTGCCTAG)	0.188
ACGTTGCCTTGGGTTCTAACCTGTTGCCT (site ACCTTGCCTAG)	0.0523
ACGTTGCCTTGGGTTCTAACCTGTTGCCT (site ACGTTGCCTAG)	0.316
ACGTTGCCTTGGGTTCTAACCTGTTGCCT (site ACTTTGCCTAG)	0.0271
ACTACTCCTTGGGTTCTAACCTGTTGCAG (site ACTACTCCTCT)	0.461
ACTACTCCTTGGGTTCTAACCTGTTGCAG (site ACTGGTCCTCT)	0.183
ACTAGAGCTTGGGTTCTAACCTGTTGCCT (site ACAAGAGCTAG)	0.122
ACTAGAGCTTGGGTTCTAACCTGTTGCCT (site ACCAGAGCTAG)	0.268
ACTAGAGCTTGGGTTCTAACCTGTTGCCT (site ACGAGAGCTAG)	0.197
ACTAGAGCTTGGGTTCTAACCTGTTGCCT (site ACTAGAGCTAG)	0.198

Sequence	recombinant barcode read abundance (log10)
ACTAGCTCTTGGGTTCTAACCTGTTGCCT (site ACTAGCTCTAG)	0.356
ACTAGCTCTTGGGTTCTAACCTGTTGCCT (site ACTTGCTCTAA)	0.0142
ACTATGACTTGGGTTCTAACCTGTTGCTT (site ACTATGACTAA)	0.75
ACTATGACTTGGGTTCTAACCTGTTGCTT (site GACTATCCTCG)	0.0905
ACTATGTCTTGGGTTCTAACCTGTTGCCA (site ACTATGTCTTG)	0.147
ACTATGTCTTGGGTTCTAACCTGTTGCCA (site CCTATGTCTTA)	0.00838
ACTCAGGCTTGGGTTCTAACCTGTTGCCG (site ACAGAGGCTCG)	0.138
ACTCAGGCTTGGGTTCTAACCTGTTGCCG (site ACTCAGGCTCG)	0.541
ACTCCGTCTTGGGTTCTAACCTGTTGCTA (site ACTCCGTCTTA)	1.11
ACTCCGTCTTGGGTTCTAACCTGTTGCTA (site GCTCCGTCTAA)	0.0432
ACTCGACCTTGGGTTCTAACCTGTTGCCT (site ACTAGACCTAG)	0.197
ACTCGACCTTGGGTTCTAACCTGTTGCCT (site ACTCGACCTAG)	1.78
ACTGAGTCTTGGGTTCTAACCTGTTGCAT (site ACTGAGTCTAT)	2.69
ACTGAGTCTTGGGTTCTAACCTGTTGCAT (site ACTGAGTCTTT)	0.109
ACTGAGTCTTGGGTTCTAACCTGTTGCTT (site ACTGAGTCTAA)	1.22
ACTGAGTCTTGGGTTCTAACCTGTTGCTT (site ACTGGGTCTAA)	0.0903
ACTGGACCTTGGGTTCTAACCTGTTGCTT (site ACTGGACCTAA)	2.23
ACTGGACCTTGGGTTCTAACCTGTTGCTT (site GCTGGACCTAG)	0.616
ACTGGGGCTTGGGTTCTAACCTGTTGCCA (site ACTGGGGCTTG)	0.782
ACTGGGGCTTGGGTTCTAACCTGTTGCCA (site TCTGGGGCTAG)	0.0799
ACTGGTCCTTGGGTTCTAACCTGTTGCAG (site ACTACTCCTCT)	0.0961
ACTGGTCCTTGGGTTCTAACCTGTTGCAG (site ACTGGTCCTCT)	2.59

Sequence	recombinant barcode read abundance (log10)
ACTTAGCCTTGGGTTCTAACCTGTTGCAT (site ACTTAGCCTAG)	1.48
ACTTAGCCTTGGGTTCTAACCTGTTGCAT (site ACTTAGCCTAT)	1.27
ACTTCGACTTGGGTTCTAACCTGTTGCCT (site AATTCGACTAG)	0.0426
ACTTCGACTTGGGTTCTAACCTGTTGCCT (site ACTTCGACTAG)	0.116
ACTTCGACTTGGGTTCTAACCTGTTGCCT (site AGTTCGACTAG)	0.461
ACTTCGACTTGGGTTCTAACCTGTTGCCT (site ATTTCGACTAG)	0.0176
ACTTCTTCTTGGGTTCTAACCTGTTGCCT (site ACTTCTACTCG)	0.124
ACTTCTTCTTGGGTTCTAACCTGTTGCCT (site ACTTCTTCTAG)	0.0747
ACTTGCTCTTGGGTTCTAACCTGTTGCTT (site ACTAGCTCTAG)	0.448
ACTTGCTCTTGGGTTCTAACCTGTTGCTT (site ACTTGCTCTAA)	0.136
ACTTGGACTTGGGTTCTAACCTGTTGCAT (site ACTTGGACTAT)	1.79
ACTTGGACTTGGGTTCTAACCTGTTGCAT (site ACTTGTACTAT)	0.0581
ACTTGGCCTTGGGTTCTAACCTGTTGCTG (site ACGTGGCCTCA)	0.111
ACTTGGCCTTGGGTTCTAACCTGTTGCTG (site ACTTGGCCTCA)	0.0699
ACTTTCCCTTGGGTTCTAACCTGTTGCCT (site ACTTTCCCTAG)	0.424
ACTTTCCCTTGGGTTCTAACCTGTTGCCT (site GCTTTGCCTAG)	0.0175
AGAAGCACTTGGGTTCTAACCTGTTGCCA (site AGAAGCACTTG)	0.783
AGAAGCACTTGGGTTCTAACCTGTTGCCA (site CTGTCTCCTAC)	0.00729
AGAAGCCCTTGGGTTCTAACCTGTTGCCT (site AAAAGCCCTAG)	0.134
AGAAGCCCTTGGGTTCTAACCTGTTGCCT (site ACAAGCCCTAG)	0.269
AGAAGCCCTTGGGTTCTAACCTGTTGCCT (site AGAAGCCCTAG)	1.51
AGAAGCCCTTGGGTTCTAACCTGTTGCCT (site ATAAGCCCTAG)	0.0722
